{
  "source": "patent US6977247B2",
  "about": "“Sequential therapy comprising a 20(S)-camptothecin and a pyrimidine base analog” (SuperGen, Inc., priority 2002, dated 2005)",
  "origin": "cited, not measured here",
  "key": {"[1]": {"test_system": "human colon cancer xenografts", "conditions": "mouse, in vivo"}, "[2]": {"test_system": "human tumor xenografts"}, "[3]": {"test_system": "various types of cancer, including primary cancer and metastasis", "conditions": "human, in vivo"}, "[4]": {"conditions": "administered intravenously; studies abandoned"}},
  "data": [
    {"smiles": "CC[C@@]1(O)C(=O)OCc2c1cc1n(c2=O)Cc2cc3c(N)cccc3nc2-1", "note": "[9AC, 9-Amino-20(S)-Camptothecin]", "values": [
      {"measurement": "anticancer activity against human colon cancer xenografts", "setting": "[1]", "result": "high anticancer activity"}
    ]},
    {"smiles": "CC[C@@]1(O)C(=O)OCc2c1cc1n(c2=O)Cc2cc3c([N+](=O)[O-])cccc3nc2-1", "note": "[9NC, 9-nitrocamptothecin]", "values": [
      {"measurement": "growth of human tumor xenografts", "setting": "[2]; immunodeficient nude mice", "result": "inhibited the growth"},
      {"measurement": "regression of human tumors established as xenografts", "setting": "[2]; nude mice", "result": "induced regression"},
      {"measurement": "tumors known to regress after exposure", "setting": "[3]", "result": "breast carcinoma, ovarian carcinoma, cholangiocarcinoma, monomyelocytic leukemia, and pancreatic carcinoma"}
    ]},
    {"smiles": "CC[C@@]1(O)C(=O)OCc2c1cc1n(c2=O)Cc2cc3cc4c(cc3nc2-1)OCO4", "note": "[10, 2011 MD, 10, 2011-Methylendioxy-20(S)-Camptothecin]", "values": [
      {"measurement": "anticancer activity against human colon cancer xenografts", "setting": "[1]", "result": "high anticancer activity"}
    ]},
    {"smiles": "CC[C@@](O)(C(=O)[O-])c1cc2n(c(=O)c1CO)Cc1cc3ccccc3nc1-2.[Na+]", "note": "[20(S)-camptothecin Na^+, sodium salt of 20(S)-camptothecin]", "values": [
      {"measurement": "potency in clinical trials", "setting": "[4]", "result": "low potency"},
      {"measurement": "toxicity in clinical trials", "setting": "[4]", "result": "high toxicity"}
    ]},
    {"smiles": "CC[C@@]1(O)C(=O)OCc2c1cc1n(c2=O)Cc2cc3ccccc3nc2-1", "note": "[20(S)-camptothecin]", "values": [
      {"measurement": "solubility in water", "result": "insoluble in water"}
    ]}
  ]
}
